Assay results reported in ChEMBL document CHEMBL5053534, “Germacrane sesquiterpenes from leaves of Eupatorium chinense inhibit protein tyrosine phosphatase” (Bioorg Med Chem Lett, 2021).

How the values were obtained:
[1] = target: T1, Tyrosine-protein phosphatase non-receptor type 1 (Homo sapiens, UniProt P18031); assay: Inhibition of human recombinant PTP1B using pNPP as substrate assessed as reduction in p-nitrophenol release incubated for 30 mins by absorbance based analysis
T1 sequence (P18031 whole entry): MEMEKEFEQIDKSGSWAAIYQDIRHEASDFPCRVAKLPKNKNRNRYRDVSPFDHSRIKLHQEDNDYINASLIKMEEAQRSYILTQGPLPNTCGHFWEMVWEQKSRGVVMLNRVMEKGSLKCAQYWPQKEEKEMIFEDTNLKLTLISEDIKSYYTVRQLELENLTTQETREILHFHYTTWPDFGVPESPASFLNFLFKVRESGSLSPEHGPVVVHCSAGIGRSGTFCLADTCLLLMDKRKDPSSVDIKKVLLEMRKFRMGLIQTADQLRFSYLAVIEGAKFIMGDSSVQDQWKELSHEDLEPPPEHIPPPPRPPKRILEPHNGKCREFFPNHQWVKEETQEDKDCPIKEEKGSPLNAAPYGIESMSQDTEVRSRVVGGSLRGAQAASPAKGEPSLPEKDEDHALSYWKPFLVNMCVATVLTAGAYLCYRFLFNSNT

[2] = target: T2, Tyrosine-protein phosphatase non-receptor type 2 (Homo sapiens, UniProt P17706); assay: Inhibition of human recombinant TCPTP using pNPP as substrate assessed as reduction in p-nitrophenol release incubated for 30 mins by absorbance based analysis
T2 sequence (P17706 whole entry): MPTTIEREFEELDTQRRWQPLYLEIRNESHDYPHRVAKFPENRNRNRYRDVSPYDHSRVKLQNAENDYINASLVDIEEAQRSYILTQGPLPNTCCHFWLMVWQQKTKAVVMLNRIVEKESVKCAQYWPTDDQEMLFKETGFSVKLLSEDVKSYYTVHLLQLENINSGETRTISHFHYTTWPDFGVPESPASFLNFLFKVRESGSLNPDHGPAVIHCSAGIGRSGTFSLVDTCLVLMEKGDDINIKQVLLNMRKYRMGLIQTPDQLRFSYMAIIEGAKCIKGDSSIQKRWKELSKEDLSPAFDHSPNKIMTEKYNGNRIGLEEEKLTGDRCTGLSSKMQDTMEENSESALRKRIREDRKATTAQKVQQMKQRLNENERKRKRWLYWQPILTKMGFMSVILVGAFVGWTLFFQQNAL

| IC50 [1] [µM] | IC50 [2] [µM] | Compound |
| --- | --- | --- |
| 11 | 25 | C=C1C(=O)O[C@@H]2/C=C(\C)CC/C=C(\C)C[C@@H](OC(=O)/C(=C\C)CO)[C@@H]12 |
| > 25 | > 25 | C=C1C(=O)O[C@@H]2/C=C(\C)CC/C=C(\CO)C[C@@H](OC(=O)/C(C)=C/C)[C@@H]12 |
| > 29 | > 29 | C=C1C(=O)O[C@@H]2/C=C(\C)CC/C=C(\C)C[C@@H](OC(=O)/C(=C/C)CO)[C@@H]12 |
| 25 | > 25 | C=C1C(=O)O[C@@H]2/C=C(\C)[C@@H](O)C/C=C(\C)C[C@@H](OC(=O)/C(=C\C)COC(C)=O)[C@@H]12 |
| > 25 | > 25 | C=C1C(=O)O[C@@H]2/C=C(\C)CC/C=C(\C)C[C@@H](OC(=O)/C(=C/C)COC(C)=O)[C@@H]12 |
| > 29 | > 29 | C=C1C(=O)O[C@@H]2/C=C(\C)CC/C=C(\C)C[C@@H](OC(=O)/C(=C\COC(C)=O)CO)[C@@H]12 |
| 28 | > 28 | C=C1C(=O)O[C@@H]2/C=C(\C)C[C@H](O)/C=C(\C)C[C@@H](OC(=O)/C(=C\C)CO)[C@@H]12 |

| Compound | IC50 [1] [µM] | IC50 [2] [µM] |
| --- | --- | --- |
| C=C1C(=O)O[C@@H]2/C=C(\C)CC/C=C(\C)C[C@@H](OC(=O)/C(=C/CO)CO)[C@@H]12 | > 28 | > 28 |
| C=C1C(=O)O[C@@H]2/C=C(\C)C[C@H](O)/C=C(\C)C[C@@H](OC(=O)/C(=C\C)COC(C)=O)[C@@H]12 | > 25 | > 25 |
